Measurements as given in BindingDB's records for patent US10738057 (Incyte Corporation, 2020).

Tests used:
[1] = target: Phosphatidylinositol 4,5-bisphosphate 3-kinase catalytic subunit gamma isoform (Homo sapiens, UniProt P48736); assay: Scintillation Proximity Assay
Text: PI3K-γ: [γ-33P]ATP (10 mCi/mL) and Wheat Germ Agglutinin (WGA) YSi SPA Scintillation Beads was purchased from PerkinElmer (Waltham, Mass.). Lipid kinase substrate, D-myo-Phosphatidylinositol 4,5-bisphosphate (PtdIns(4,5)P2)D (+)-sn-1,2-di-O-octanoylglyceryl, 3-O-phospho linked (PIP2), CAS 204858-53-7, was purchased from Echelon Biosciences (Salt Lake City, Utah). PI3Kγ (p110γ) Recombinant Human Protein was purchased from Life technology (Grand Island, N.Y.). ATP, MgCl2, DTT, EDTA, MOPS and CHAPS were purchased from SigmaAldrich (St. Louis, Mo.).The kinase reaction was conducted in polystyrene 384-well Greiner Bio-one white plate from Thermo Fisher Scientific in a final volume of 25 μL. Inhibitors were first diluted serially in DMSO and added to the plate wells before the addition of other reaction components. The final concentration of DMSO in the assay was 2%. The PI3Kγ assay was carried out at room temperature in 20 mM MOPS, pH 6.7, 10 mM MgCl2, 5 mM DTT and CHAPS 0.03%. Reactions were initiated by the addition of ATP, the final reaction mixture consisted of 20 μM PIP2, 2 μM ATP, 0.5 μCi [γ-33P] ATP, 13 nM PI3Kγ. Reactions were incubated for 120 min and terminated by the addition of 40 μL SPA beads suspended in quench buffer: 163 mM potassium phosphate pH 7.8, 20% glycerol, 25 mM EDTA. The final concentration of SPA beads is 1.0 mg/mL. After the plate sealing, plates were shaken overnight at room temperature and centrifuged at 1500 rpm for 10 min, the radioactivity of the product was determined by scintillation counting on Topcount (Perkin-Elmer).

[2] = target: T1, Phosphatidylinositol 4,5-bisphosphate 3-kinase catalytic subunit delta isoform (Homo sapiens, UniProt O00329); assay: Scintillation Proximity Assay
T1 sequence (O00329 whole entry): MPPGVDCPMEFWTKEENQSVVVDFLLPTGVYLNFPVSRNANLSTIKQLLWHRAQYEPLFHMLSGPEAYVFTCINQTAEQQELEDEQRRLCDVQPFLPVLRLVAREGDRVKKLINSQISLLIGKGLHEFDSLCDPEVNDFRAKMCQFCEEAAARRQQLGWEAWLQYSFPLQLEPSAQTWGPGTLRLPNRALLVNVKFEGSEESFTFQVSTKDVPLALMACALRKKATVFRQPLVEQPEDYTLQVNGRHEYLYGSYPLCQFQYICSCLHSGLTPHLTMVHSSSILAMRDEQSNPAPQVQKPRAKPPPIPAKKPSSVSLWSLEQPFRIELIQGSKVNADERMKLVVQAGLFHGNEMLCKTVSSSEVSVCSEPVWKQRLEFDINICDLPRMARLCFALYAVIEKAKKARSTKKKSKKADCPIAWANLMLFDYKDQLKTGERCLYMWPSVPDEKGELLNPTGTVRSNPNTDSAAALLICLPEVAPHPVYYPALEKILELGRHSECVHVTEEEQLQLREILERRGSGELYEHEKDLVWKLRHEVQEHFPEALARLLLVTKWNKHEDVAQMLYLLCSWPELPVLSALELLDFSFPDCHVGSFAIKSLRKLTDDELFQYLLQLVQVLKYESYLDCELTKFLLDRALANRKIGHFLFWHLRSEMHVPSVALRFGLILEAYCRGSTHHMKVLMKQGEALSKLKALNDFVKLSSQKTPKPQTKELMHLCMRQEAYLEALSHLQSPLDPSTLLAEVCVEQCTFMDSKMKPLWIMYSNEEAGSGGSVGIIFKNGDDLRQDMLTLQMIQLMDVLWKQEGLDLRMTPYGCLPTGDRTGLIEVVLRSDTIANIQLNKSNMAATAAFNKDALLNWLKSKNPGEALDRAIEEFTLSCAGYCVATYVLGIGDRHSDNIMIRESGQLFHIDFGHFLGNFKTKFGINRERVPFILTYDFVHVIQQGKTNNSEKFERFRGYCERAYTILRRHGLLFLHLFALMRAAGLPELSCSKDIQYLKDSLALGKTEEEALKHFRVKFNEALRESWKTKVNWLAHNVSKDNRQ
Text: PI3Kδ: [γ-33P]ATP (10 mCi/mL) and Wheat Germ Agglutinin (WGA) YSi SPA Scintillation Beads was purchased from PerkinElmer (Waltham, Mass.). Lipid kinase substrate, D-myo-Phosphatidylinositol 4,5-bisphosphate (PtdIns(4,5)P2)D (+)-sn-1,2-di-O-octanoylglyceryl, 3-O-phospho linked (PIP2), CAS 204858-53-7, was purchased from Echelon Biosciences (Salt Lake City, Utah). PI3Kδ (p110δ/p85α) Recombinant Human Protein was purchased from Eurofins. ATP, MgCl2, DTT, EDTA, MOPS and CHAPS were purchased from SigmaAldrich.The kinase reaction was conducted in polystyrene 384-well Greiner Bio-one white plate from Thermo Fisher Scientific in a final volume of 25 μL. Inhibitors were first diluted serially in DMSO and added to the plate wells before the addition of other reaction components. The final concentration of DMSO in the assay was 2%. The PI3Kδ assay was carried out at room temperature in 20 mM MOPS, pH 6.7, 10 mM MgCl2, 5 mM DTT and CHAPS 0.03%. Reactions were initiated by the addition of ATP, the final reaction mixture consisted of 20 μM PIP2, 2 μM ATP, 0.5 μCi [γ-33P] ATP, 3.4 nM PI3Kδ. Reactions were incubated for 120 min and terminated by the addition of 40 μL SPA beads suspended in quench buffer: 163 mM potassium phosphate pH 7.8, 20% glycerol, 25 mM EDTA. The final concentration of SPA beads is 1.0 mg/mL. After the plate sealing, plates were shaken overnight at room temperature and centrifuged at 1500 rpm for 10 min, the radioactivity of the product was determined by scintillation counting on Topcount.

Chain of Phosphatidylinositol 4,5-bisphosphate 3-kinase catalytic subunit gamma isoform (P48736 whole entry, canonical isoform): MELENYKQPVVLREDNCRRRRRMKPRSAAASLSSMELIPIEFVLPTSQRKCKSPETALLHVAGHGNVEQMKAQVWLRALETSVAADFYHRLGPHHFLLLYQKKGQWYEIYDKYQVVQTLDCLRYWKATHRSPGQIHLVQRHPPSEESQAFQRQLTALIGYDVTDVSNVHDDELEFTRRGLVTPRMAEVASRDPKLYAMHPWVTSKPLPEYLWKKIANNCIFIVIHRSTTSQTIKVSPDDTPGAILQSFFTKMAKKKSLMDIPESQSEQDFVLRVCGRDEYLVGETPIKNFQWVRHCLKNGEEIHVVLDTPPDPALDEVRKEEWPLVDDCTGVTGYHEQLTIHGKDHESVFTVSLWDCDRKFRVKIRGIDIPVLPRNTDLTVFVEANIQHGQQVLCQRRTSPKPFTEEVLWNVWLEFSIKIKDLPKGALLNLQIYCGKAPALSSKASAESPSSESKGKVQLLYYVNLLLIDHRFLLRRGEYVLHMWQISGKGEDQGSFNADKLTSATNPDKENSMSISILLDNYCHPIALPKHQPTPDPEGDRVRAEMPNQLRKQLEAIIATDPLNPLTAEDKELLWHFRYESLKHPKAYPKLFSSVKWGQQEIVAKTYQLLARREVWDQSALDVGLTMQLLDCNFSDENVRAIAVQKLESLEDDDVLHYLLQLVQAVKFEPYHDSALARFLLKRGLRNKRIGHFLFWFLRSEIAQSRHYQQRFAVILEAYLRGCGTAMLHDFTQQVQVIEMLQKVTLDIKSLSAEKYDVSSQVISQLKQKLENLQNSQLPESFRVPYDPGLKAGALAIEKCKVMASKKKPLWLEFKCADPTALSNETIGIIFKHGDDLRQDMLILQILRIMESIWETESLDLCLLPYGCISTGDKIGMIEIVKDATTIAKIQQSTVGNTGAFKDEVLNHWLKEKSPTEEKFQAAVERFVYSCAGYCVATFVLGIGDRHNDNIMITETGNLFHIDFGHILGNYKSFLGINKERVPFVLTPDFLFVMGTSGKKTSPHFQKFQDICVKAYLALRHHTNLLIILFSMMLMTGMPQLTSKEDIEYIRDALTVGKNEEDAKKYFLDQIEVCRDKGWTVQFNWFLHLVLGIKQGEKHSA

SMILES: Cc1ccc(C(C)C(F)(F)F)cc1-c1cnc2c(N)nc(-c3cnn(C)c3)cn12 (stereo unspecified) [US10738057, Example 69]
- IC50 [1]: < 100 nM
- IC50 [2]: < 100 nM

SMILES: Cc1ncc(-c2cn3c(-c4cc(C(C)C(F)(F)F)ccc4C)cnc3c(N)n2)s1 (stereo unspecified) [US10738057, Example 70]
- IC50 [1]: < 100 nM
- IC50 [2]: < 100 nM

SMILES: Cc1ccc(C(C)C(F)(F)F)cc1-c1cnc2c(N)nc(-c3cnco3)cn12 (stereo unspecified) [US10738057, Example 71]
- IC50 [1]: < 100 nM
- IC50 [2]: < 100 nM
